Source: patent US20260109707A1, “HETEROBIFUNCTIONAL COMPOUNDS AND METHODS OF TREATING DISEASE” (Halda Therapeutics OpCo. Inc., priority 2022, published 2026)
Where two headings read alike, the source gives them in different places.

Columns and labels:
VCaP cells = experiment: Cellular growth inhibition assay for VCaP cells (CellTiter-Glo, 72 hours); assay type: cell-based, human
Method: VCaP cells were purchased from American Type Cell Culture (ATCC Cat #CRL2876) and then seeded on poly-D-lysine coated, black clear-bottom 384-well plates at 5000/well in 25 μL Dulbecco's Modified Eagle Medium (DMEM) supplemented with 10% w/w Fetal bovine serum (FBS) and 1% w/w Pen-Strep. Pen-Strep is a commercially available mixture of penicillin G and streptomycin, which is used in mammalian cell culture media to prevent bacterial contamination. Dulbecco's Modified Eagle Medium (DMEM) supplemented with 10% w/w fetal bovine serum (FBS) and 1% w/w Pen-Strep is herein referred to as Treatment Medium. Following seeding of cells in the plates, the plates were spun at 300×g for 30 seconds, then equilibrated to room temperature for 30 minutes, and then deposited in a humidified tissue culture incubator maintained at 37° C. with 5% C0-2.
(§1) At 24 hours after seeding of the cells, dilutions of test compound were prepared in DMSO and dissolved in Treatment Medium, to achieve a final DMSO concentration of 0.5% w/w, thereby providing the Test Compound Solution. A 25 μL aliquot of the Test Compound Solution was added to cells in the well plates. An equal volume of a solution containing DMSO and Treatment Medium was used as a negative control. Following treatment of cells with Test Compound Solution or said equal volume of a solution containing DMSO and Treatment Medium, the plates were spun at 300×g for 30 seconds, and then left in an incubator for 72 hours.
(§2) At the end of the treatment duration, cell viability was quantified with CellTiter-Glo 2.0 reagent (Promega Cat #G9243). For this purpose, plates were equilibrated to room temperature for 30 minutes, and then 25 μL of CellTiter-Glo 2.0 reagent was added to cells in the plate wells. Plates were then agitated on a shaker for two minutes at 500 rpm and subsequently incubated at room temperature for 10 minutes. Following incubation, the plates were spun at 3000×g for 30 seconds, then sealed with an optical adhesive cover, and luminescence readings were measured with an EnVision Plate Reader.
(§3) Data was normalized using zero luminescence for baseline. A four-parameter non-linear regression curve fit was applied to dose-response data in GraphPad Prism data analysis software to determine the half-maximal growth inhibitory concentration (GI50) for each test compound.

[1] = tested on: T-Rex 293 cell line SC3 cells having increased expression of androgen receptor protein due to exposure to doxycycline; experiment: Cellular growth inhibition assay, T-Rex 293 SC3 cells with doxycycline (CellTiter-Glo, 72 hours); assay type: cell-based; conditions: T-Rex 293 SC3 cells with increased androgen receptor expression due to doxycycline (10 ng/mL)
Method: (§4) The following types of cells were prepared for this experiment: (i) a T-Rex 293 cell line having increased expression of androgen receptor protein due to exposure to doxycycline and (ii) a T-Rex 293 cell line lacking increased expression of androgen receptor protein. Ability of the test compounds to inhibit proliferation of the foregoing cell types was evaluated according to the procedures set forth below.
(§5) The doxycycline-inducible androgen receptor protein expressing cell line was established using the following protocol: T-Rex 293 cells were purchased from Invitrogen (Cat #R71007) and transfected using Lipofectamine 2000 with the wild-type androgen receptor protein sequence cloned into the pcDNA4/TO vector. Transfected cells were selected using 400 μg/mL Zeocin (Invitrogen Cat #R25001). Following selection, single clones were raised and maintained in Dulbecco's Modified Eagle Medium (DMEM) supplemented with 10% w/w Tetracycline-free fetal bovine serum (FBS) and 250 μg/mL Zeocin. Clones were analyzed for expression of androgen receptor protein in the presence and absence of 10 ng/mL doxycycline (Sigma Cat #D9891), and a single doxycycline-inducible clone (hereinafter “SC3”) was selected for use in downstream assays.
(§6) The SC3 cells were seeded on poly-D-lysine coated, black clear-bottom 384-well plates at 2500/well, in 25 μL Phenol Red Free Dulbecco's Modified Eagle Medium (DMEM) supplemented with 10% w/w charcoal-dextran treated fetal bovine serum (FBS) and 1% w/w pen-strep, with or without 10 ng/mL doxycycline. Pen-Strep is a commercially available mixture of penicillin G and streptomycin, which is used in mammalian cell culture media to prevent bacterial contamination. Phenol Red Free Dulbecco's Modified Eagle Medium (DMEM) supplemented with 10% w/w charcoal-dextran treated fetal bovine serum (FBS) and 1% w/w pen-strep, with or without 10 ng/mL doxycycline is herein referred to as Treatment Medium. Following seeding of cells in the plates, the plates were spun at 300×g for 30 seconds, then equilibrated to room temperature for 30 minutes, and then deposited in a humidified tissue culture incubator maintained at 37° C. with 5% CO2.
as §1, §2, §3

[2] = tested on: T-Rex 293 cell line SC3 cells lacking increased expression of androgen receptor protein; experiment: Cellular growth inhibition assay, T-Rex 293 SC3 cells without doxycycline (CellTiter-Glo, 72 hours); assay type: cell-based; conditions: T-Rex 293 cell line SC3 cells not exposed to doxycycline (lacking increased androgen receptor expression)
Method: as §4, §5, §6, §1, §2, §3

| GI50 (VCaP cells; Homo sapiens, VCaP, 72 h) [nM] | GI50 (VCaP cells) [nM] | Compound | GI50 ([1]; 72 h) [nM] | GI50 ([2]; 72 h) [nM] | GI50 [1] [nM] | GI50 [2] [nM] |
| --- | --- | --- | --- | --- | --- | --- |
| 500 to 1500 |  | CCNC(=O)C[C@@H]1N=C(c2ccc(OC3CN(CC4CCN(c5ccc(C(=O)N[C@H]6CC[C@H](Oc7ccc(C#N)c(Cl)c7)CC6)nn5)CC4)C3)cc2)c2c(sc(C)c2C)-n2c(C)nnc21 [I-45] | < 500 | 500 to 1500 |  |  |
| < 500 |  | CCNC(=O)C[C@@H]1N=C(c2ccc(OC3CC(N(C)C4CCN(c5ccc(C(=O)N[C@H]6CC[C@H](Oc7ccc(C#N)c(Cl)c7)CC6)nn5)CC4)C3)cc2)c2c(sc(C)c2C)-n2c(C)nnc21 (stereo partly drawn) [I-46] | < 500 | 500 to 1500 |  |  |
| < 500 |  | CCNC(=O)C[C@@H]1N=C(c2ccc(N3CC(N(C4CC4)C4CN(c5ccc(C(=O)N[C@H]6CC[C@H](Oc7ccc(C#N)c(Cl)c7)CC6)nn5)C4)C3)cc2)c2c(sc(C)c2C)-n2c(C)nnc21 [I-56] | < 500 | < 500 |  |  |
| < 500 |  | CCNC(=O)C[C@@H]1N=C(c2ccc(N3CC(OC4CCN(c5ccc(C(=O)N[C@H]6CC[C@H](Oc7ccc(C#N)c(Cl)c7)CC6)nn5)CC4)C3)cc2)c2c(sc(C)c2C)-n2c(C)nnc21 [I-57] | < 500 | < 500 |  |  |
| < 500 |  | CCNC(=O)C[C@@H]1N=C(c2ccc(N3CCC(OC4CN(c5ccc(C(=O)N[C@H]6CC[C@H](Oc7ccc(C#N)c(Cl)c7)CC6)nn5)C4)CC3)cc2)c2c(sc(C)c2C)-n2c(C)nnc21 [I-58] | < 500 | 500 to 1500 |  |  |
| < 500 |  | CCNC(=O)C[C@@H]1N=C(c2ccc(N3CC(N(C)C4CN(c5ccc(C(=O)N[C@H]6CC[C@H](Oc7ccc(C#N)c(Cl)c7)CC6)nn5)C4)C3)cc2)c2c(sc(C)c2C)-n2c(C)nnc21 [I-61] | < 500 | > 3000 |  |  |
| < 500 |  | CCNC(=O)C[C@@H]1N=C(c2ccc(N3CC(N(C)C4CCN(c5ccc(C(=O)N[C@H]6CC[C@H](Oc7ccc(C#N)c(Cl)c7)CC6)nn5)CC4)C3)cc2)c2c(sc(C)c2C)-n2c(C)nnc21 [I-62] | < 500 | > 3000 |  |  |
| < 500 |  | CCNC(=O)C[C@@H]1N=C(c2ccc(N3CC(N(C(C)C)C4CN(c5ccc(C(=O)N[C@H]6CC[C@H](Oc7ccc(C#N)c(Cl)c7)CC6)nn5)C4)C3)cc2)c2c(sc(C)c2C)-n2c(C)nnc21 [I-64] | < 500 | 500 to 1500 |  |  |
| 500 to 1500 |  | CCNC(=O)C[C@@H]1N=C(c2ccc(N(C)C3CN(c4ccc(C(=O)N[C@H]5CC[C@H](Oc6ccc(C#N)c(Cl)c6)CC5)nn4)C3)cc2)c2c(sc(C)c2C)-n2c(C)nnc21 [I-65] | < 500 | 500 to 1500 |  |  |
| < 500 |  | CCNC(=O)C[C@@H]1N=C(c2ccc(N3CC(CC4CN(c5ccc(C(=O)N[C@H]6CC[C@H](Oc7ccc(C#N)c(Cl)c7)CC6)nn5)C4)C3)cc2)c2c(sc(C)c2C)-n2c(C)nnc21 [I-66] | < 500 | 500 to 1500 |  |  |
| < 500 |  | CCNC(=O)C[C@@H]1N=C(c2ccc(N(C)C3CC(OC4CCN(c5ncc(C(=O)N[C@H]6CC[C@H](Oc7ccc(C#N)c(Cl)c7)CC6)cn5)CC4)C3)cc2)c2c(sc(C)c2C)-n2c(C)nnc21 (stereo partly drawn) [I-69] | < 500 | 500 to 1500 |  |  |
| < 500 |  | CCNC(=O)C[C@@H]1N=C(c2ccc(N3CC(OC4CN(c5ccc(C(=O)N[C@H]6CC[C@H](Oc7ccc(C#N)c(Cl)c7)CC6)nn5)C4)C3)cc2)c2c(sc(C)c2C)-n2c(C)nnc21 [I-70] | < 500 | 500 to 1500 |  |  |
| < 500 |  | Cc1sc2c(c1C)C(c1ccc(OC3CC4(CCN(c5ccc(C(=O)N[C@H]6CC[C@H](Oc7ccc(C#N)c(Cl)c7)CC6)nn5)CC4)C3)nc1)=NC1(CC1)c1nnc(C)n1-2 [I-443] | < 500 | > 3000 |  |  |
| < 500 |  | Cc1sc2c(c1C)C(c1ccc(CC3CC4(CCN(c5ccc(C(=O)N[C@H]6CC[C@H](Oc7ccc(C#N)c(Cl)c7)CC6)nn5)CC4)C3)cc1)=NC1(CC1)c1nnc(C)n1-2 [I-444] | < 500 | > 3000 |  |  |
|  | < 500 | Cc1sc2c(c1C)C(c1ccc(OCC3CC4(CCCN(c5ccc(C(=O)N[C@H]6CC[C@H](Oc7ccc(C#N)c(Cl)c7)CC6)nn5)C4)C3)cc1)=NCc1nnc(C)n1-2 (stereo partly drawn) [I-446] |  | > 3000 | < 500 |  |
|  | > 3000 | Cc1sc2c(c1C)C(c1ccc(OCC3CC4(CCCN(c5ccc(C(=O)N[C@H]6CC[C@H](Oc7ccc(C#N)c(Cl)c7)CC6)nn5)C4)C3)cc1)=NCc1nnc(C)n1-2 (stereo partly drawn) [I-447] |  |  | < 500 | > 3000 |
| 1500 to 3000 |  | Cc1sc2c(c1C)C(c1ccc(N3CCC4(CCCN(c5ccc(C(=O)N[C@H]6CC[C@H](Oc7ccc(C#N)c(Cl)c7)CC6)nn5)C4)CC3)nc1)=NC1(CC1)c1nnc(C)n1-2 [I-448] | < 500 | > 3000 |  |  |
| > 3000 |  | Cc1sc2c(c1C)C(c1ccc(N3CCC4(CC3)CCN(c3ccc(C(=O)N[C@H]5CC[C@H](Oc6ccc(C#N)c(Cl)c6)CC5)nn3)C4)nc1)=NCc1nnc(C)n1-2 [I-449] | < 500 | > 3000 |  |  |
| < 500 |  | C#Cc1ccc(O[C@H]2CC[C@H](NC(=O)c3ccc(N4CCC(C5CN(c6ccc(C7=NC8(CC8)c8nnc(C)n8-c8sc(C)c(C)c87)cc6)C5)CC4)nn3)CC2)cc1Cl [I-450] | < 500 | > 3000 |  |  |
| 500 to 1500 |  | Cc1sc2c(c1C)C(c1ccc(N3CC(C4CCN(c5ccc(C(=O)N[C@H]6CC[C@H](Oc7ccc(C#N)c(Cl)c7)CC6)nn5)CC4)C3)cc1)=NCc1nnc(C)n1-2 [I-451] | < 500 | > 3000 |  |  |
| < 500 |  | Cc1sc2c(c1C)C(c1ccc(OC3CC4(C3)CC3(CCN(c5ccc(C(=O)N[C@H]6CC[C@H](Oc7ccc(C#N)c(Cl)c7)CC6)nn5)CC3)C4)cc1)=NC1(CC1)c1nnc(C)n1-2 [I-452] | < 500 | > 3000 |  |  |
| < 500 |  | Cc1sc2c(c1C)C(c1ccc(OC3CC4(C3)CC3(CCN(c5ccc(C(=O)N[C@H]6CC[C@H](Oc7ccc(C#N)c(Cl)c7)CC6)nn5)CC3)C4)cc1)=NCc1nnc(C)n1-2 [I-453] | < 500 | > 3000 |  |  |
| < 500 |  | Cc1sc2c(c1C)C(c1ccc(C#CC3CC4(CCCN(c5ccc(C(=O)N[C@H]6CC[C@H](Oc7ccc(C#N)c(Cl)c7)CC6)nn5)C4)C3)cn1)=NC(C)c1nnc(C)n1-2 (stereo partly drawn) [I-454] |  |  | < 500 | > 3000 |
|  | < 500 | Cc1sc2c(c1C)C(c1ccc(C#CC3CC4(CCCN(c5ccc(C(=O)N[C@H]6CC[C@H](Oc7ccc(C#N)c(Cl)c7)CC6)nn5)C4)C3)cn1)=NC(C)c1nnc(C)n1-2 (stereo partly drawn) [I-455] |  |  | < 500 | > 3000 |
|  | 500 to 1500 | Cc1sc2c(c1C)C(c1ccc(C#CC3CC4(CCCN(c5ccc(C(=O)N[C@H]6CC[C@H](Oc7ccc(C#N)c(Cl)c7)CC6)nn5)C4)C3)cn1)=NC(C)c1nnc(C)n1-2 (stereo partly drawn) [I-456] |  |  | < 500 | 500 to 1500 |
| < 500 |  | Cc1sc2c(c1C)C(c1ccc(C#CC3CC4(C3)CN(c3ccc(C(=O)N[C@H]5CC[C@H](Oc6ccc(C#N)c(Cl)c6)CC5)nn3)C4)cn1)=NC(C)c1nnc(C)n1-2 (stereo partly drawn) [I-457] | < 500 | > 3000 |  |  |
